Source: patent publication US6780633B2, “Methods for producing optically active amino acids” (Sumitomo Chemical Company, Limited, priority 1999, dated 2004)

Columns and labels:
Assay type in all cases: cell-based
[1] = tested on: Pseudomonas oxalaticus IFO13593; experiment: effect of aminotransferase inhibitor on production of L-p-chlorophenylalanine from D-form by cells, at equilibrium; settings: inhibitor final 1 mM; 30° C., 24 hours (reaction equilibrated); absence of inhibitor = 100%
Method: (§1) A 500 mL Sakaguchi flask containing 100 ml of a sterilized medium (pH 7.0) containing 1.0% (w/v) glycerol, 0.2% (w/v) polypeptone (Nihon Pharmaceutical Co., Ltd.), 0.3% (w/v) meat extract (Kyokuto Pharmaceutical Ind., Co., Ltd.), 0.3% (w/v) yeast extract (Difco), 0.1% (w/v) dipotassium phosphate, 0.1% (w/v) potassium mono phosphate, 0.03% (w/v) magnesium sulfate heptahydrate was inoculated with 1 mL of a culture of Nocardia diaphanozonaria strain JCM3208 which had previously been cultivated in a medium of the similar composition, and incubated at 30° C. for 2 days with a reciprocal shaking. 80 ml of this culture was subjected to centrifugation (10000 g, 10 minutes) to collect wet cells. The collected wet cells were washed twice with 80 ml of 100 mM potassium phosphate buffer (pH 7.0) and the wet cells thus obtained was suspended in 4 mL of 100 mM potassium phosphate buffer (pH 7.0) to obtain a cell suspension.
(§2) 0.2 ml of the cell suspension was combined with 1.8 mL of 100 mM potassium phosphate buffer (pH7.0) containing D-p-chlorophenylalanine at 5.5 mM and an aminotransferase inhibitor shown in Table 6 at 1.1 mM, and incubated at 30° C. for 2 hours with a reciprocal shaking at 250 rpm. Each reaction mixture was analyzed at an early stage of the reaction by HPLC to quantify L-p-chlorophenylalanine produced by the reaction. The results are represented as the relative values each based on 100% production of L-p-chlorophenylalanine in the absence of the respective aminotransferase inhibitor.
(§3) The reaction was performed similarly as in Example 6 except for using each of the microorganisms shown in Table 8 instead of Nocardia diaphanozonaria strain JCM3208 and except that the reaction time was 24 hours (when the reaction was equilibrated).

[2] = tested on: Saccharopolyspora hirsuta JCM9109; experiment: as above; settings: inhibitor final 1 mM; 30° C., 24 hours (reaction equilibrated); absence of inhibitor = 100%
Method: as §1, §2, §3

[3] = tested on: Arthrobacter pascens IFO12139; experiment: as above; settings: inhibitor final 1 mM; 30° C., 24 hours (reaction equilibrated); absence of inhibitor = 100%
Method: as §1, §2, §3

[4] = tested on: Streptomyces roseus IFO12818; experiment: as above; settings: inhibitor final 1 mM; 30° C., 24 hours (reaction equilibrated); absence of inhibitor = 100%
Method: as §1, §2, §3

[5] = tested on: Pseudomonas oleovorans IFO13583; experiment: effect of aminotransferase inhibitor on production of L-p-chlorophenylalanine from D-form by cells; settings: inhibitor final 1 mM; 30° C., 2 hours; absence of inhibitor = 100%
Method: as §1, §2
(§4) The reaction was performed similarly as in Example 6 except for using each of the microorganisms shown in Table 7 instead of Nocardia diaphanozonaria strain JCM3208.

[6] = tested on: Pseudomonas chlororaphis IFO3521; experiment: as above; settings: inhibitor final 1 mM; 30° C., 2 hours; absence of inhibitor = 100%
Method: as §1, §2, §4

[7] = tested on: Pseudomonas taetrolens IFO3460; experiment: as above; settings: inhibitor final 1 mM; 30° C., 2 hours; absence of inhibitor = 100%
Method: as §1, §2, §4

[8] = tested on: Rhizobium meliloti IFO14782; experiment: as above; settings: inhibitor final 1 mM; 30° C., 2 hours; absence of inhibitor = 100%
Method: as §1, §2, §4

[9] = tested on: Klebsiella planticola JCM7251; experiment: as above; settings: inhibitor final 1 mM; 30° C., 2 hours; absence of inhibitor = 100%
Method: as §1, §2, §4

[10] = tested on: Flavimonas oryzihabitans JCM2952; experiment: as above; settings: inhibitor final 1 mM; 30° C., 2 hours; absence of inhibitor = 100%
Method: as §1, §2, §4

[11] = tested on: Nocardia diaphanozonaria strain JCM3208; experiment: as above; settings: inhibitor final concentration 1 mM; D-p-chlorophenylalanine 5.5 mM; 30° C., 2 hours (early stage); absence of inhibitor = 100%
Method: as §1, §2

| Compound | Relative value (%) of production of L-p-chlorophenylalanine [1] [%] | Relative value (%) of production of L-p-chlorophenylalanine [2] [%] | Relative value (%) of production of L-p-chlorophenylalanine [3] [%] | Relative value (%) of production of L-p-chlorophenylalanine [4] [%] | Relative value (%) of production of L-p-chlorophenylalanine [5] [%] | Relative value (%) of production of L-p-chlorophenylalanine [6] [%] | Relative value (%) of production of L-p-chlorophenylalanine [7] [%] | Relative value (%) of production of L-p-chlorophenylalanine [8] [%] | Relative value (%) of production of L-p-chlorophenylalanine [9] [%] | Relative value (%) of production of L-p-chlorophenylalanine [10] [%] | Relative value (%) of production of L-p-chlorophenylalanine [11] [%] |
| --- | --- | --- | --- | --- | --- | --- | --- | --- | --- | --- | --- |
| NC1C=CC=C(C(=O)O)C1 (racemic) [DL-Gabaculine] | 105 | 97 | 96 | 97 | 87 | 72 | 75 | 88 | 102 | 105 | 92 |
| N[C@H](CCl)C(=O)O [β-Chloro-D-alanine] | 124 | 99 | 83 | 114 | 91 | 85 | 84 | 108 | 90 | 144 | 108 |
| N[C@@H](CCl)C(=O)O [β-Chloro-L-alanine] | 91 | 101 | 84 | 95 | 94 | 102 | 87 | 96 | 92 | 92 | 121 |
